Test results as given in PubChem BioAssay AID330 (DTP/NCI, 2004).
Several values for one entry are separate records, joined by “and”; a condition that tells them apart may be missing. Identical values can stand only once. Inconclusive results and toxic doses are left out. Square brackets hold non-standard residues; d marks the D form. Peptide text beside a SMILES is read from it. * marks the point of attachment. ξ: configuration not given here. Cbz = O=C(OCc1ccccc1)*; ξL = CC(C)CC(N)C(=O)O; OBn = c1ccc(CO*)cc1

System: P388 leukemia ip, CD2F1 mice, survival T/C
Assay: NCI In Vivo Anticancer Drug Screen. Data for tumor model P388 Leukemia (intraperitoneal) in CD2F1 (CDF1) mice
Conditions: endpoint: median survival time, higher = longer survival
How it was run: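 Mice carrying the transplanted tumor received test compound or vehicle. Survival was recorded in each group, and the value is the treated-group measurement divided by that of the vehicle-treated control group.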

[1] = dose: 50.0 mg/kg/injection, schedule: Q01DX009 (ip), vehicle: Klucel (hydroxypropylcellulose) (HPC)
[2] = dose: 100.0 mg/kg/injection, schedule: Q01DX009 (ip), vehicle: Klucel (hydroxypropylcellulose) (HPC)
[3] = dose: 100.0 mg/kg/injection, schedule: Q04DX003 (ip), vehicle: saline with Tween-80
[4] = dose: 60.0 mg/kg/injection, schedule: Q01DX005 (ip), vehicle: Klucel (hydroxypropylcellulose) (HPC)
[5] = dose: 120.0 mg/kg/injection, schedule: Q01DX005 (ip), vehicle: Klucel (hydroxypropylcellulose) (HPC)
[6] = dose: 240.0 mg/kg/injection, schedule: Q01DX005 (ip), vehicle: Klucel (hydroxypropylcellulose) (HPC)
[7] = dose: 200.0 mg/kg/injection, schedule: Q01DX009 (ip), vehicle: Klucel (hydroxypropylcellulose) (HPC)
[8] = dose: 100.0 mg/kg/injection, schedule: Q04DX003 (ip), vehicle: saline
[9] = dose: 25.0 mg/kg/injection, schedule: Q01DX009 (ip), vehicle: saline
[10] = dose: 50.0 mg/kg/injection, schedule: Q01DX009 (ip), vehicle: saline
[11] = dose: 100.0 mg/kg/injection, schedule: Q01DX009 (ip), vehicle: saline
[12] = dose: 50.0 mg/kg/injection, schedule: Q01DX005 (ip), vehicle: Klucel (hydroxypropylcellulose) (HPC)
[13] = dose: 100.0 mg/kg/injection, schedule: Q01DX005 (ip), vehicle: Klucel (hydroxypropylcellulose) (HPC)
[14] = dose: 200.0 mg/kg/injection, schedule: Q01DX005 (ip), vehicle: Klucel (hydroxypropylcellulose) (HPC)
[15] = dose: 25.0 mg/kg/injection, schedule: Q01DX009 (ip), vehicle: saline with Tween-80
[16] = dose: 50.0 mg/kg/injection, schedule: Q01DX009 (ip), vehicle: saline with Tween-80
[17] = dose: 100.0 mg/kg/injection, schedule: Q01DX009 (ip), vehicle: saline with Tween-80
[18] = dose: 200.0 mg/kg/injection, schedule: Q01DX009 (ip), vehicle: saline with Tween-80
[19] = dose: 15.0 mg/kg/injection, schedule: Q01DX005 (ip), vehicle: saline with Tween-80

Cc1ccccc1C[P+](c1ccccc1)(c1ccccc1)c1ccccc1
T/C (dose: 0.62 mg/kg/injection, schedule: Q01DX009 (ip), vehicle: saline with Tween-80): 95 % of control
T/C (dose: 1.25 mg/kg/injection, schedule: Q01DX009 (ip), vehicle: saline with Tween-80): 100 % of control
T/C (dose: 2.5 mg/kg/injection, schedule: Q01DX009 (ip), vehicle: saline with Tween-80): 104 % of control
T/C (dose: 5.0 mg/kg/injection, schedule: Q01DX009 (ip), vehicle: saline with Tween-80): 117 % of control
T/C (dose: 5.0 mg/kg/injection, schedule: Q04DX003 (ip), vehicle: saline with Tween-80): 100 % of control
T/C (dose: 10.0 mg/kg/injection, schedule: Q01DX009 (ip), vehicle: saline with Tween-80): 95 % of control
T/C (dose: 10.0 mg/kg/injection, schedule: Q04DX003 (ip), vehicle: saline with Tween-80): 87 % of control

COc1ccc2nc(NC(=O)Nc3ccc(C)c(NC(=O)Nc4nc5ccc(OC)cc5s4)c3)sc2c1
T/C [1]: 92 % of control
T/C [2]: 89 % of control

C[N+](C)(C)C1CCC2CCCCC2C1 (stereo not drawn)
T/C (dose: 12.5 mg/kg/injection, schedule: Q04DX003 (ip), vehicle: saline with Tween-80): 103 % of control
T/C (dose: 25.0 mg/kg/injection, schedule: Q04DX003 (ip), vehicle: saline with Tween-80): 100 % of control and 107 % of control and 98 % of control
T/C (dose: 50.0 mg/kg/injection, schedule: Q04DX003 (ip), vehicle: saline with Tween-80): 100 % of control and 104 % of control and 124 % of control
T/C [3]: 98 % of control

CCCCN1C(=O)[C@@H]2[C@H](c3ccccc3O)C(c3ccccc3O)[C@@H]2C1=O (stereo partly drawn)
T/C [4]: 100 % of control
T/C [5]: 92 % of control
T/C [6]: 100 % of control

COc1cc(OC)c(NC(=S)NC(C)C)cc1Cl
T/C [1]: 91 % of control
T/C [2]: 96 % of control
T/C [7]: 99 % of control

COc1ccc(NCS(=O)(=O)O)cc1
T/C [8]: 100 % of control
T/C (dose: 200.0 mg/kg/injection, schedule: Q04DX003 (ip), vehicle: saline): 108 % of control
T/C (dose: 400.0 mg/kg/injection, schedule: Q04DX003 (ip), vehicle: saline): 104 % of control

CC(C)(C)c1noc2c1C(=O)c1ccccc1-2
T/C [4]: 99 % of control
T/C [5]: 91 % of control
T/C [6]: 96 % of control

CC(C)CC(NC(=O)OCc1ccccc1)C(=O)NCC(=O)NCC(=O)OCc1ccccc1 (stereo not drawn) (Cbz-[ξL]-Gly-Gly-OBn)
T/C (dose: 50.0 mg/kg/injection, schedule: Q01DX005 (ip), vehicle: saline with Tween-80): 105 % of control
T/C (dose: 100.0 mg/kg/injection, schedule: Q01DX005 (ip), vehicle: saline with Tween-80): 105 % of control
T/C (dose: 200.0 mg/kg/injection, schedule: Q01DX005 (ip), vehicle: saline with Tween-80): 102 % of control

C[As](C)[Se]CC1OC2OC(C)(C)OC2C2OC(C)(C)OC12 (stereo not drawn)
T/C [1]: 89 % of control
T/C [2]: 90 % of control
T/C [7]: 92 % of control

NC(=S)N/N=C/c1ncccc1O
T/C [9]: 158 % of control
T/C (dose: 50.0 mg/kg/injection, schedule: Q01DX005 (ip), vehicle: saline): 155 % of control
T/C [10]: 151 % of control and 158 % of control
T/C (dose: 100.0 mg/kg/injection, schedule: Q01DX005 (ip), vehicle: saline): 162 % of control
T/C (dose: 100.0 mg/kg/injection, schedule: Q01DX005 (ip), vehicle: suspension in saline): 167 % of control
T/C [11]: 180 % of control
T/C (dose: 200.0 mg/kg/injection, schedule: Q01DX005 (ip), vehicle: saline): 157 % of control
T/C (dose: 200.0 mg/kg/injection, schedule: Q01DX005 (ip), vehicle: suspension in saline): 90 % of control

CC(C)(C)OC(=O)C1CCON1C1OC(C(O)CO)C2OC(C)(C)OC21 (stereo not drawn)
T/C [12]: 100 % of control
T/C [13]: 100 % of control and 98 % of control
T/C [14]: 95 % of control and 104 % of control

CSC(=S)NC#N
T/C [15]: 111 % of control
T/C [16]: 100 % of control
T/C [17]: 107 % of control
T/C [18]: 108 % of control

Cc1cc2nc(-c3cc4cc(Cl)cc(Cl)c4oc3=O)[nH]c2cc1C
T/C (dose: 25.0 mg/kg/injection, schedule: Q01DX005 (ip), vehicle: Klucel (hydroxypropylcellulose) (HPC)): 98 % of control
T/C [12]: 95 % of control
T/C [13]: 96 % of control
T/C [14]: 96 % of control

CSc1nc2ccccc2[nH]1
T/C (dose: 6.25 mg/kg/injection, schedule: Q01DX009 (ip), vehicle: saline with Tween-80): 101 % of control
T/C (dose: 12.5 mg/kg/injection, schedule: Q01DX009 (ip), vehicle: saline with Tween-80): 106 % of control
T/C [15]: 106 % of control
T/C [16]: 110 % of control

COC(=O)N1c2ccccc2C(c2ccccc2)=NC1C#N (stereo not drawn)
T/C (dose: 7.5 mg/kg/injection, schedule: Q01DX005 (ip), vehicle: saline with Tween-80): 103 % of control
T/C [19]: 112 % of control
T/C (dose: 30.0 mg/kg/injection, schedule: Q01DX005 (ip), vehicle: saline with Tween-80): 103 % of control

COc1cccc2c(NCCCN(C)CCCNc3c4ccccc4nc4c(OC)cccc34)c3ccccc3nc12
T/C (dose: 1.25 mg/kg/injection, schedule: Q01DX009 (ip), vehicle: water): 120 % of control
T/C (dose: 2.5 mg/kg/injection, schedule: Q01DX009 (ip), vehicle: water): 124 % of control
T/C (dose: 10.0 mg/kg/injection, schedule: Q01DX009 (ip), vehicle: water): 163 % of control

OCCN1CCN(CCCOC2=Nc3ccccc3O/C2=C/c2ccccc2)CC1
T/C (dose: 25.0 mg/kg/injection, schedule: Q04DX003 (ip), vehicle: saline): 100 % of control
T/C (dose: 50.0 mg/kg/injection, schedule: Q04DX003 (ip), vehicle: saline): 100 % of control
T/C [8]: 98 % of control and 101 % of control

Oc1ccc(C2c3ccccc3Oc3ccccc32)cc1
T/C [16]: 101 % of control
T/C [17]: 111 % of control
T/C [18]: 118 % of control

CC(C)CCOC(=O)CN(CC(=O)OCCC(C)C)c1ccccc1
T/C [3]: 104 % of control
T/C (dose: 200.0 mg/kg/injection, schedule: Q04DX003 (ip), vehicle: saline with Tween-80): 100 % of control
T/C (dose: 400.0 mg/kg/injection, schedule: Q04DX003 (ip), vehicle: saline with Tween-80): 95 % of control

O=C(NC1CCCCC1)Oc1ccc[nH]c1=O
T/C [9]: 92 % of control and 93 % of control
T/C (dose: 25.0 mg/kg/injection, schedule: Q01DX009 (sc), vehicle: saline with Tween-80): 101 % of control and 109 % of control
T/C [10]: 102 % of control and 104 % of control
T/C (dose: 50.0 mg/kg/injection, schedule: Q01DX009 (sc), vehicle: saline with Tween-80): 106 % of control and 107 % of control
T/C [11]: 105 % of control and 98 % of control
T/C (dose: 100.0 mg/kg/injection, schedule: Q01DX009 (sc), vehicle: saline with Tween-80): 102 % of control and 117 % of control
T/C (dose: 200.0 mg/kg/injection, schedule: Q01DX009 (ip), vehicle: saline): 102 % of control and 105 % of control
T/C (dose: 200.0 mg/kg/injection, schedule: Q01DX009 (sc), vehicle: saline with Tween-80): 108 % of control and 111 % of control
T/C (dose: 400.0 mg/kg/injection, schedule: Q01DX009 (ip), vehicle: saline): 116 % of control and 118 % of control
T/C (dose: 400.0 mg/kg/injection, schedule: Q01DX009 (sc), vehicle: saline with Tween-80): 104 % of control and 107 % of control
T/C (dose: 600.0 mg/kg/injection, schedule: Q01DX009 (sc), vehicle: saline with Tween-80): 102 % of control and 113 % of control

COc1ccc2sc3cc(Cl)ccc3c(=O)c2c1
T/C (dose: 1.87 mg/kg/injection, schedule: Q01DX005 (ip), vehicle: saline with Tween-80): 89 % of control
T/C (dose: 3.75 mg/kg/injection, schedule: Q01DX005 (ip), vehicle: saline with Tween-80): 90 % of control
T/C [19]: 89 % of control and 90 % of control
T/C (dose: 60.0 mg/kg/injection, schedule: Q01DX005 (ip), vehicle: saline with Tween-80): 88 % of control

O=C(c1ccccc1)C(NCc1ccccc1)(Nc1ccccn1)c1ccccc1 (stereo not drawn)
T/C (dose: 15.0 mg/kg/injection, schedule: Q01DX005 (ip), vehicle: Klucel (hydroxypropylcellulose) (HPC)): 102 % of control
T/C (dose: 30.0 mg/kg/injection, schedule: Q01DX005 (ip), vehicle: Klucel (hydroxypropylcellulose) (HPC)): 100 % of control
T/C [4]: 100 % of control and 88 % of control
T/C [6]: 89 % of control
